Measured values published in US7030107B2, “Fused bicyclic pyridine derivatives as tachykinin receptor antagonists” (Kyorin Pharmaceutical.Co., Ltd., priority 2001, dated 2006).

Columns and labels:
NK1 receptor = target: T1, NK1 receptor (Cavia porcellus, UniProt P30547); experiment: Test for NK1 receptor antagonist: substance P concentration-response in isolated guinea pig ileum, Schild analysis; assay type: cell-based; conditions: antagonism of substance P, 10 min pretreatment, Schild method
T1 construct: from tissue; host or cells: isolated guinea pig ileum
Description: (1) Test for NK1 Receptor Antagonist
The method used was according to the method proposed by S. Dion et al. (Dion et al., Life Sciences 41 (1987): 2269), to which minor modifications were made.
Guinea pigs were stunned by a blow on the head and were exsanguinated from the carotid artery and ileum was isolated. The ileum was mounted in an organ bath containing Tyrode's solution which was maintained at 32° C. and gased with 95% O2 and 5% CO2. The ileum was subjected to a resting tension of 1-gram and allowed to equilibrate for 20 minutes before the experiment was started. As a control, a concentration-response curve for substance P obtained in the absence of test compounds was used. The NK1 receptor antagonist activity of each test compound was determined by a concentration-response curve obtained by pretreating at least three concentrations of the test compound for 10 minutes and subsequently applying substance P in a cumulative manner. The Kb values were determined according to the method proposed by Schild and the results are shown in Table 1 (Schild Brit. J. Pharmacol. 14 (1959): 49).
The composition of the Tyrode's solution was as follows: NaCl=136.9, KCl=2.7, CaCl2.2H2O=2.5, MgCl2.6H2O=1.0, NaH2PO4.2H2O=0.4, NaHCO3=11.9, glucose=11.1 (mmol/L)

Guinea pigs = experiment: Cystometry test on guinea pigs with cut spinal cord (effective bladder capacity); assay type: in vivo; conditions: guinea pig
From the text: (2) Cystometry Test on Guinea Pigs
The method used was according to the method proposed by J S. Peterson et al. (Peterson J S. et al., J. Pharmacol. Methods 21 (1989): 231), to which minor modifications were made.
Guinea pigs were anesthetized with halothane and the tenth thoracic spinal cord was cut in each animal. Subsequently, both ureters were ligated and were cut on the kidney-side. Polyethylene catheters were inserted into the bladder to provide an injection pathway for physiological saline and a pathway for the measurement of intravesical pressure. Each animal was restricted in a Ballman cage and was left for more than 2 hours. Subsequently, room-temperature saline was injected through the bladder catheter into the bladder at a rate of 6 mL/hr to conduct a cystometry test. After the effective bladder capacity was stabilized, a test compound was intravenously administered from the jugular vein. The effective bladder capacity is defined as the volume of saline injected from one urination to the next. The effect of each test compound was determined as the increase in the average bladder volume, which was determined by taking difference between the average bladder volume measured 30 minutes prior to the administration of the test compound and the average bladder volume measured every 30 minutes after the administration of the test compound.

T1 sequence (P30547 whole entry): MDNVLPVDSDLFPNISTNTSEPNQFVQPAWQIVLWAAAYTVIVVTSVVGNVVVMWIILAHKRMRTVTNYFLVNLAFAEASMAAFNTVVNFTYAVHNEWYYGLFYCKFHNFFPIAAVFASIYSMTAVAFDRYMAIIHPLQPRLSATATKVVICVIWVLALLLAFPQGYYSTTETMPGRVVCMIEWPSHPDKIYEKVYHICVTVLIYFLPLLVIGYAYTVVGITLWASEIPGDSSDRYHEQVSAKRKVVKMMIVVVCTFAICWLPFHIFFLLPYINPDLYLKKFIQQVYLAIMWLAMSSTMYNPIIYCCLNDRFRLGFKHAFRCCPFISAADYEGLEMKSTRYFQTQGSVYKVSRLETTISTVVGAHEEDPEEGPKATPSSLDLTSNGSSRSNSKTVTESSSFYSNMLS

Structure (SMILES)	Kb (NK1 receptor)	Increase in bladder capacity (Guinea pigs; 0.3 mg/kg i.v.)	Increase in bladder capacity (Guinea pigs; 1 mg/kg i.v.)	Increase in bladder capacity (Guinea pigs; 3 mg/kg i.v.)
O=C1c2c(-c3ccccc3)cc(N3CCC(N4CCCC4)CC3)nc2OCCCN1Cc1cc(C(F)(F)F)cc(C(F)(F)F)c1 [Example 1, 5-[3,5-bis(trifluoromethyl)benzyl]-6-oxo-7-phenyl-9-[4-(pyrrolidine-1-yl)piperidine-1-yl]-2,3,4,5-tetrahydro-6H-pyrido[2,3-b][1,5]oxazocine]	224 pM			
O=C1c2c(-c3ccc(F)cc3)cc(N3CCC(N4CCCC4)CC3)nc2OCCCN1Cc1cc(C(F)(F)F)cc(C(F)(F)F)c1 [Example 4, 5-[3,5-bis(trifluoromethyl)benzyl]-7-(4-fluorophenyl)-6-oxo-9-[4-(pyrrolidine-1-yl)piperidine-1-yl]-2,3,4,5-tetrahydro-6H-pyrido[2,3-b][1,5]oxazocine]	148 pM			
Cc1ccccc1-c1cc(N2CCC(N3CCCC3)CC2)nc2c1C(=O)N(Cc1cc(C(F)(F)F)cc(C(F)(F)F)c1)CCCO2 [Example 7, 5-[3,5-bis(trifluoromethyl)benzyl]-7-(2-methylphenyl)-6-oxo-9-[4-(pyrrolidine-1-yl)piperidine-1-yl]-2,3,4,5-tetrahydro-6H-pyrido[2,3-b][1,5]oxazocine]	210 pM	24.2%	46.0%	
Cc1ccccc1-c1cc(N2CCC(N(C)C)CC2)nc2c1C(=O)N(Cc1cc(C(F)(F)F)cc(C(F)(F)F)c1)CCCO2 [Example 8, 5-[3,5-bis(trifluoromethyl)benzyl]-9-[4-(dimethylamino)piperidine-1-yl]-7-(2-methylphenyl)-6-oxo-2,3,4,5-tetrahydro-6H-pyrido[2,3-b][1,5]oxazocine]	275 pM			
Cc1ccccc1-c1cc(N2CCC(N3CCOCC3)CC2)nc2c1C(=O)N(Cc1cc(C(F)(F)F)cc(C(F)(F)F)c1)CCCO2 [Example 9, 5-[3,5-bis(trifluoromethyl)benzyl]-7-(2-methylphenyl)-9-[4-(morpholine-4-yl)piperidine-1-yl]-6-oxo-2,3,4,5-tetrahydro-6H-pyrido[2,3-b][1,5]oxazocine]	84.8 pM			
Cc1ccccc1-c1cc(N2CCC(N3CCCC3=O)CC2)nc2c1C(=O)N(Cc1cc(C(F)(F)F)cc(C(F)(F)F)c1)CCCO2 [Example 10, 5-[3,5-bis(trifluoromethyl)benzyl]-7-(2-methylphenyl)-6-oxo-9-[4-(2-oxopyrrolidine-1-yl)piperidine-1-yl]-2,3,4,5-tetrahydro-6H-pyrido[2,3-b][1,5]oxazocine]	286 pM			
CC(=O)NC1CCN(c2cc(-c3ccccc3C)c3c(n2)OCCCN(Cc2cc(C(F)(F)F)cc(C(F)(F)F)c2)C3=O)CC1 [Example 13, 9-[4-(acetylamino)piperidine-1-yl]-5-[3,5-bis(trifluoromethyl)benzyl]-7-(2-methylphenyl)-6-oxo-2,3,4,5-tetrahydro-6H-pyrido[2,3-b][1,5]oxazocine]	170 pM			
Cc1ccc(-c2c3n(c(=O)c4ncccc24)CC[C@@H](C)CN(Cc2cc(C(F)(F)F)cc(C(F)(F)F)c2)C3=O)cc1 [TAK-637]		12.0%	23.8%	20.5%
